The compounds below were run against Cdk9/cyclinT1 (Homo sapiens, UniProt P50750) (assay: Cdk9/CyclinT1 IMAP assay).
Sequence of Cdk9/cyclinT1 (P50750 whole entry): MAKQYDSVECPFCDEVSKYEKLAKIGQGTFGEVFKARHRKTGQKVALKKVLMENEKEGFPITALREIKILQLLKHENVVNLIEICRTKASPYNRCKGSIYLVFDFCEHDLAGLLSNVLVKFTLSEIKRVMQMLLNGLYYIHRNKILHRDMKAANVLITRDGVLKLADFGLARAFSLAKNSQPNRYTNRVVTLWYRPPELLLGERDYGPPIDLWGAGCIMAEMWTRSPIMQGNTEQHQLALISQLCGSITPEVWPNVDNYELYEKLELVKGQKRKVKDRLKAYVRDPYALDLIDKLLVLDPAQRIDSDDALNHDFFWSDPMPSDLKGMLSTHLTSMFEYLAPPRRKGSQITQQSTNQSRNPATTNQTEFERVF
Sequence of Cdk9/cyclinT1 (O60563 whole entry partner): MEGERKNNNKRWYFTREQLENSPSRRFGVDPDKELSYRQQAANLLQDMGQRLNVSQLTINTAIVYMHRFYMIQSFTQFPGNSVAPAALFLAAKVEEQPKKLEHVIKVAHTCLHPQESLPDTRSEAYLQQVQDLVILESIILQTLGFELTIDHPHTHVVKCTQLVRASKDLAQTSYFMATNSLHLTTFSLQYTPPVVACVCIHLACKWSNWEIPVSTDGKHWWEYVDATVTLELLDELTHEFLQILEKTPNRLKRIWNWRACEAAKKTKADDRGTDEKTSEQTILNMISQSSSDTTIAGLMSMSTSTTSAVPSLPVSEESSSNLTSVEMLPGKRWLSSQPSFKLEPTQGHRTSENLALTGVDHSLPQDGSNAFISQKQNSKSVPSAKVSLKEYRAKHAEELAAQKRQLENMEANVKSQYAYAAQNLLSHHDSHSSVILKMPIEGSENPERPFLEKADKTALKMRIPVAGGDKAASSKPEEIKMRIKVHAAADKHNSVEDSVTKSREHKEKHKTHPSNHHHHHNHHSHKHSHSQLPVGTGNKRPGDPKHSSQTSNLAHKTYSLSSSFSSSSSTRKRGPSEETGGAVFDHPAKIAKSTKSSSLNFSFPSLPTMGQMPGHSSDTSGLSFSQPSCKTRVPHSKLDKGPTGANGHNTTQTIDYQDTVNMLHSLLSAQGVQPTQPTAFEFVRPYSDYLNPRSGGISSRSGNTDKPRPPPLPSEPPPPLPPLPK

Row | Compound | IC50
1 | CN(C)CC(C)(C)CNc1cc(-c2cncc(NCc3cccc(F)c3)c2)c(Cl)cn1 [Compound 13] | 130 nM
2 | COc1cccc(CNc2cncc(-c3cc(N[C@H]4CC[C@H](N)CC4)ncc3Cl)c2)c1 [Compound 15] | 8 nM
3 | O[C@H]1CC[C@@H](Nc2cc(-c3cc(NCC4CCOCC4)cnc3Cl)c(Cl)cn2)CC1 [Compound 17] | 25 nM
4 | N[C@H]1CC[C@@H](Nc2cc(-c3cncc(NCc4cccc(F)c4)c3)c(Cl)cn2)CC1 [Compound 21] | 11 nM
5 | N[C@H]1CC[C@H](Nc2cc(-c3cncc(NCC4CCCCC4)c3)c(Cl)cn2)CC1 [Compound 23] | 10 nM
6 | Clc1cnc(N[C@H]2CC[C@H](NC[C@H]3CCCO3)CC2)cc1-c1cc(NCC2CCOCC2)cnc1Cl [Compound 25, 2,5′-dichloro-N5-((tetrahydro-2H-pyran-4-yl)methyl)-N2′-(trans-4-(((R)-tetrahydrofuran-2-yl)methylamino)cyclohexyl)-3,4′-bipyridine-2′,5-diamine] | < 8 nM
7 | N[C@H]1CC[C@H](Nc2cc(-c3cncc(NCC4CCCOC4)c3)c(Cl)cn2)CC1 (stereo partly shown) [Compound 29] | 16 nM
8 | OCCNc1cc(-c2cncc(NCc3cccc(F)c3)c2)c(Cl)cn1 [Compound 30] | < 8 nM
9 | Cc1cccc(CNc2cncc(-c3cc(N[C@H]4CC[C@H](N)CC4)ncc3Cl)c2)c1 [Compound 34] | < 8 nM
10 | N[C@H]1CC[C@H](Nc2cc(-c3cncc(NCc4ccc(F)c(F)c4)c3)c(Cl)cn2)CC1 [Compound 35] | < 8 nM
11 | C[C@H](CO)Nc1cc(-c2cncc(NCC3CCOCC3)c2)c(Cl)cn1 [Compound 41] | 325 nM
12 | N[C@H]1CC[C@H](Nc2cc(-c3cncc(NCc4cc(F)ccc4F)c3)c(Cl)cn2)CC1 [Compound 43] | < 8 nM
13 | N[C@H]1CC[C@H](Nc2cc(-c3cnc(N4CCOCC4)c(NCc4cccc(F)c4)c3)c(Cl)cn2)CC1 [Compound 45] | 610 nM
14 | Fc1cccc(CNc2cncc(-c3cc(NC4CC4)ncc3Cl)c2)c1 [Compound 47] | < 8 nM
15 | Fc1cccc(CNc2cncc(-c3cc(NC4CCCC4)ncc3Cl)c2)c1 [Compound 48] | < 8 nM
16 | Fc1cccc(CNc2cncc(-c3cc(NCC[C@H]4CCCNC4)ncc3Cl)c2)c1 [Compound 49] | < 8 nM
17 | N[C@H]1CC[C@H](Nc2cc(-c3cncc(NCc4ccccc4)c3)c(Cl)cn2)CC1 [Compound 51] | < 8 nM
18 | O[C@H]1CC[C@H](Nc2cc(-c3cnc(F)c(NCC4CCOCC4)c3)c(Cl)cn2)CC1 [Compound 54] | < 8 nM
19 | O[C@H]1CC[C@H](Nc2cc(-c3cncc(NCc4cccc(F)c4)c3)c(Cl)cn2)CC1 [Compound 62] | < 8 nM
20 | N[C@H]1CC[C@H](Nc2cc(-c3cncc(NCC4CCOCC4)c3)c(Cl)cn2)CC1 [Compound 63, N2′-(trans-4-aminocyclohexyl)-5′-chloro-N5-((tetrahydro-2H-pyran-4-yl)methyl)-3,4′-bipyridine-2′,5-diamine] | 18 nM
21 | Clc1cnc(N[C@H]2CC[C@H](NC[C@@H]3CCCO3)CC2)cc1-c1cc(NCC2CCOCC2)cnc1Cl [Compound 65] | < 8 nM
22 | Fc1cccc(CNc2cc(-c3cc(NC4CCCC4)ncc3Cl)cnc2N2CCOCC2)c1 [Compound 66] | 1490 nM
23 | CO[C@H](CN[C@H]1CC[C@H](Nc2cc(-c3cc(NCC4CCOCC4)cnc3Cl)c(Cl)cn2)CC1)C(F)(F)F [Compound 72, 2,5′-dichloro-N5-((tetrahydro-2H-pyran-4-yl)methyl)-N2′-(trans-4-((R)-3,3,3-trifluoro-2-methoxypropylamino)cyclohexyl)-3,4′-bipyridine-2′,5-diamine] | 7 nM
24 | O[C@@H](CN[C@H]1CC[C@H](Nc2cc(-c3cc(NCC4CCOCC4)cnc3Cl)c(Cl)cn2)CC1)C(F)(F)F [Compound 73] | 2 nM
25 | O[C@H](CN[C@H]1CC[C@H](Nc2cc(-c3cc(NCC4CCOCC4)cnc3Cl)c(Cl)cn2)CC1)C(F)(F)F [Compound 74, (R)-3-(trans-4-(2,5′-dichloro-5-((tetrahydro-2H-pyran-4-yl)methyl)amino-3,4′-bipyridin-2′-ylamino)cyclohexylamino)-1,1,1-trifluoropropan-2-ol] | 1 nM
26 | Clc1cnc(N[C@H]2CC[C@H](N3CCCC3)CC2)cc1-c1cc(NCC2CCOCC2)cnc1Cl [Compound 76, 2,5′-dichloro-N2′-(trans-4-(pyrrolidin-1-yl)cyclohexyl)-N5-((tetrahydro-2H-pyran-4-yl)methyl)-3,4′-bipyridine-2′,5-diamine] | 35 nM
27 | N[C@H]1CC[C@H](Nc2cc(-c3cnc(Cl)c(NCC4CCOCC4)c3)c(Cl)cn2)CC1 [Compound 77, N2′-(trans-4-aminocyclohexyl)-5′,6-dichloro-N5-((tetrahydro-2H-pyran-4-yl)methyl)-3,4′-bipyridine-2′,5-diamine] | < 8 nM

Continued, values first:

Row | IC50 | Compound
28 | 32 nM | CC(C)(CN)CNc1cc(-c2cncc(NCc3cccc(F)c3)c2)c(Cl)cn1 [Compound 12]
29 | 9 nM | N[C@H]1CC[C@H](Nc2cc(-c3cncc(NCc4cccnc4)c3)c(Cl)cn2)CC1 [Compound 22]
30 | < 8 nM | N[C@H]1CC[C@H](Nc2cc(-c3cncc(NCc4cccc(F)c4)c3)c(Cl)cn2)CC1 [Compound 24, N2′-(trans-4-aminocyclohexyl)-5′-chloro-N5-(3-fluorobenzyl)-3,4′-bipyridine-2′,5-diamine]
31 | 1960 nM | N[C@H]1CC[C@H](Nc2cc(-c3cnc(N4CCOCC4)c(NCC4CCOCC4)c3)c(Cl)cn2)CC1 [Compound 26, N2′-(trans-4-aminocyclohexyl)-5′-chloro-6-morpholino-N5-((tetrahydro-2H-pyran-4-yl)methyl)-3,4′-bipyridine-2′,5-diamine]
32 | 57 nM | Clc1cnc(NC2CC2)cc1-c1cncc(NCC2CCOCC2)c1 [Compound 27]
33 | 1970 nM | CN1CCC(CNc2cc(-c3cncc(NCC4CCOCC4)c3)c(Cl)cn2)CC1 [Compound 28]
34 | < 8 nM | CN(C)[C@H]1CC[C@H](Nc2cc(-c3cncc(NCc4cccc(F)c4)c3)c(Cl)cn2)CC1 [Compound 31, 5′-chloro-N2′-(trans-4-(dimethylamino)cyclohexyl)-N5-(3-fluorobenzyl)-3,4′-bipyridine-2′,5-diamine]
35 | 16 nM | CN(Cc1cccc(F)c1)c1cncc(-c2cc(N[C@H]3CC[C@H](N)CC3)ncc2Cl)c1 [Compound 32]
36 | < 8 nM | N[C@H]1CC[C@H](Nc2cc(-c3cncc(NCc4ccc(F)cc4)c3)c(Cl)cn2)CC1 [Compound 33]
37 | 32 nM | CC(=O)N1CCC(CNc2cncc(-c3cc(N[C@H]4CC[C@H](N)CC4)ncc3Cl)c2)CC1 [Compound 36, 1-(4-((2′-(trans-4-aminocyclohexylamino)-5′-chloro-3,4′-bipyridin-5-ylamino)methyl)piperidin-1-yl)ethanone]
38 | 6920 nM | OCCNc1cc(-c2cnc(N3CCOCC3)c(NCc3cccc(F)c3)c2)c(Cl)cn1 [Compound 37]
39 | 21 nM | CN(C)CCCCNc1cc(-c2cncc(NCc3cccc(F)c3)c2)c(Cl)cn1 [Compound 38]
40 | < 8 nM | NC[C@H]1CC[C@H](Nc2cc(-c3cncc(NCc4cccc(F)c4)c3)c(Cl)cn2)CC1 [Compound 39, N2′-(trans-4-(aminomethyl)cyclohexyl)-5′-chloro-N5-(3-fluorobenzyl)-3,4′-bipyridine-2′,5-diamine]
41 | < 8 nM | OCCCNc1cc(-c2cncc(NCc3cccc(F)c3)c2)c(Cl)cn1 [Compound 40]
42 | < 8 nM | N[C@H]1CC[C@H](Nc2cc(-c3cncc(NCc4cccc(Cl)c4)c3)c(Cl)cn2)CC1 [Compound 42]
43 | < 8 nM | N[C@H]1CC[C@H](Nc2cc(-c3cncc(NCc4cccc(F)c4)c3)ccn2)CC1 [Compound 44, N2′-(trans-4-aminocyclohexyl)-N5-(3-fluorobenzyl)-3,4′-bipyridine-2′,5-diamine]
44 | 1830 nM | O[C@H]1CC[C@H](Nc2cc(-c3cnc(N4CCOCC4)c(NCC4CCOCC4)c3)c(Cl)cn2)CC1 [Compound 46]

Row | IC50 | Compound
45 | 10 nM | NCC(O)CNc1cc(-c2cncc(NCc3cccc(F)c3)c2)c(Cl)cn1 (stereo not shown) [Compound 50]
46 | 35 nM | CS(=O)(=O)N1CCC(CNc2cncc(-c3cc(N[C@H]4CC[C@H](N)CC4)ncc3Cl)c2)CC1 [Compound 52]
47 | 660 nM | O[C@H]1CC[C@H](Nc2cc(-c3cnc(N4CCOCC4)c(NCc4cccc(F)c4)c3)c(Cl)cn2)CC1 [Compound 53]
48 | < 8 nM | N[C@H]1CC[C@H](Nc2cc(-c3cnc(F)c(NCC4CCOCC4)c3)c(Cl)cn2)CC1 [Compound 55, N2′-(trans-4-aminocyclohexyl)-5′-chloro-6-fluoro-N5-((tetrahydro-2H-pyran-4-yl)methyl)-3,4′-bipyridine-2′,5-diamine]
49 | 68 nM | Clc1cnc(NCC[C@H]2CCCNC2)cc1-c1cncc(NCC2CCOCC2)c1 [Compound 56]
50 | 199 nM | OCCCNc1cc(-c2cncc(NCC3CCOCC3)c2)c(Cl)cn1 [Compound 57]
51 | 2260 nM | COCCNc1cc(-c2cncc(NCC3CCOCC3)c2)c(Cl)cn1 [Compound 58]
52 | 130 nM | OCC(CO)Nc1cc(-c2cncc(NCc3cccc(F)c3)c2)c(Cl)cn1 [Compound 59]
53 | < 8 nM | NCCCNc1cc(-c2cncc(NCc3cccc(F)c3)c2)c(Cl)cn1 [Compound 60]
54 | < 8 nM | NCCCCNc1cc(-c2cncc(NCc3cccc(F)c3)c2)c(Cl)cn1 [Compound 61]
55 | < 8 nM | N[C@H]1CC[C@H](Nc2cc(-c3cncc(NCc4cc(F)cc(F)c4)c3)c(Cl)cn2)CC1 [Compound 64]
56 | 335 nM | C[C@@H](CO)Nc1cc(-c2cncc(NCC3CCOCC3)c2)c(Cl)cn1 [Compound 67]
57 | 820 nM | OCCNc1cc(-c2cncc(NCC3CCOCC3)c2)c(Cl)cn1 [Compound 68]
58 | < 8 nM | CN1CCC(CNc2cc(-c3cncc(NCc4cccc(F)c4)c3)c(Cl)cn2)CC1 [Compound 69]
59 | 9 nM | Fc1cccc(CNc2cncc(-c3cc(NCC4CCOCC4)ncc3Cl)c2)c1 [Compound 70]
60 | < 8 nM | N[C@H]1CC[C@H](Nc2cc(-c3cncc(NCc4ccncc4)c3)c(Cl)cn2)CC1 [Compound 71]
61 | < 8 nM | COCCN[C@H]1CC[C@H](Nc2cc(-c3cnc(Cl)c(NCC4CCOCC4)c3)c(Cl)cn2)CC1 [Compound 78, 5′,6-dichloro-N2′-(trans-4-(2-methoxyethylamino)cyclohexyl)-N5-((tetrahydro-2H-pyran-4-yl)methyl)-3,4′-bipyridine-2′,5-diamine]
